One series has as its system CRBN. As to the kind of experiment: Detection of the CRBN ubiquitin ligase activity using live cells. The class given is cell-based. As to conditions: mammalian cells expressing FLAG-CRBN, immunoblotting. As to the method: This process was carried out basically in accordance with the method of Ohtake et al. See Ohtake et al., Nature, 446:562-566 (2007). MG132, which was a proteasome inhibitor, was applied to mammalian cells expressing CRBN fused with a FLAG epitope tag, and the cells were left still. Subsequently, the cells were disrupted, and from the resulting cell lysate solution, FLAG was purified, and CRBN was extracted. Then immunoblotting was performed under similar, but stricter, conditions to the above, whereby self-ubiquitination was detected and measured.
(A western blot detects proteins with antibodies after separation by electrophoresis.)

The test system of a further series is zebrafish. As to the kind of experiment: Resistance to thalidomide in brain development (brain thickness to body length). In kind it is in vivo. As to conditions: BRD7-knockdown larvae, 400 μM thalidomide. As to the method: To analyze the functional relationship between thalidomide and BRD7, brain development of BRD7-knockdown zebrafish treated with thalidomide was examined and compared with that of normal zebrafish treated with thalidomide. […] FIGS. 12A and 12B show the normal zebrafish treated with 400 μM thalidomide. FIGS. 12C and 12D show the BRD7-knockdown zebrafish treated with 400 μM thalidomide. FIGS. 12A′ and 12C′ show the brain regions of the normal zebrafish treated with 400 μM thalidomide. FIGS. 12B′ and 12D′ show the brain regions of the BRD7-knockdown zebrafish treated with 400 μM thalidomide. […] The percentages of brain thickness to body length in the normal and the BRD7-knockdown zebrafish, with or without thalidomide treatments were also measured. […] The brain size of the BRD7-knockdown larvae incubated in thalidomide is 98.8% of that of the BRD7-knockdown larvae incubated in the absence of thalidomide.

A further series deals with zebrafish embryos. As to the kind of experiment: Quantitative PCR of gene expression in zebrafish embryos. As to conditions: 11 hpf. In kind it is in vivo. The protocol: BRD7-knockdown zebrafish embryos show similar phenotypes as CRBN-overexpressing zebrafish embryos. For example, expression of HuC in untreated, CRBN-overexpressing, and BRD7-knockdown zebrafish embryos was compared by quantitative PCR. Quantitative PCR was performed as follows: 1.7 μg of random […] and oligo-dT primed cDNA synthesized by ReverTra Ace qPCR RT Kit (TOYOBO, Japan) (as template) were used for reverse transcription by THUNDERBIRD™ SYBR® qPCR Mix (Toyobo, Japan). 0.25 mM of each forward and reverse primers were used in the reaction, wherein the sequence of the forward primer was 5′-[…]-3′ (SEQ ID NO: 9); and the sequence of the reverse primer was 5′-[…]-3′ (SEQ ID NO: 10).
Expression of Pou5f1 (Oct3/4), c-Myc, Sox2, and Nanog in zebrafish embryos was analyzed by quantitative PCR. Quantitative RT (qRT)-PCR was performed as follows: 1.7 μg of random hexamer and oligo-dT primed cDNA synthesized by ReverTra Ace qPCR RT Kit (TOYOBO, Japan) (as template) were used for reverse transcription by THUNDERBIRD™ SYBR® qPCR Mix (Toyobo, Japan). 0.25 mM of each forward and reverse primers was used in the reaction. The sequences of primers for c-Myc are as follows: forward primer is 5′-[…]-3′ (SEQ ID NO: 15), and reverse primer is 5′-GTAAAACGACGGCCAGT-3′ (SEQ ID NO: 16). The sequences of primers for sox2 are as follows: forward primer is 5′-ACCCCGGAGGAAAACCAA-3′ (SEQ ID NO: 17), and reverse primer is 5′-CCCGGCAGGGTGTACTTG-3′ (SEQ ID NO: 18). The sequences of primers for nanog are as follows: forward primer is 5′-TACCCAACACACCAGCTTC-3′ (SEQ ID NO: 19), and reverse primer is 5′-GAAGGGTGTTTTTGGAGGA-3′ (SEQ ID NO: 20).
Expression of a pool of three genes, Ascl1, Brn2 (Pou3f2), and Myt1la, is sufficient to directly reprogram embryonic and postnatal fibroblasts into functional neurons. See, e.g., Vierbuchen and Wernig, Nat Biotechnol. 29:892-907 […]. […] Primer sequences for amplification for Ascl1a are as follows: forward primer is 5′-ACGAGCATGACGCCGTA-3′ (SEQ ID NO: 21), and reverse primer is 5′-[…]-3′ (SEQ ID NO: 22). Primer sequences for amplification for Pou3f2b are as follows: forward primer is 5′-[…]-3′ (SEQ ID NO: 23), and reverse primer is 5′-[…]-3′(SEQ ID NO: 24). Primer sequences for amplification for Myt1la are as follows: forward primer is 5′-[…]-3′ (SEQ ID NO: 25), and reverse primer is 5′-[…]-3′ (SEQ ID NO: 26). FIG. […]
Notch3 and Neuropilin2b (Nrp2b) are required for cell proliferation progression. Notch3 regulates the timing of neural differentiation from undifferentiated or immature cells, and Nrp2b regulates cell proliferation and remodeling in mesenchymal stem cells by cooperating with PDGF (platelet-derived growth factor). Therefore, expression of Notch3 and Neuropilin 2b (Nrp2b) was analyzed in untreated and CRBN-overexpressing zebrafish embryos by quantitative PCR. The primers used for Notch3 are as follows: the sequence for forward primer is 5′-[…]-3′ (SEQ ID NO: 27), and the sequence for reverse primer is 5′-[…]-3′ (SEQ ID NO: 28). The primers used for Nrp2b are as follows: the sequence of forward primer is 5′-[…]-3′ (SEQ ID NO: 29), and the sequence of reverse primer is 5′-[…]-3′ (SEQ ID NO: 30). FIG. 29A is a histogram showing the mRNA level of Notch3 and Nrp2b in untreated, CRBN-overexpressing, and thalidomide-treated zebrafish embryos at 11 hpf by quantitative PCR. As shown, expression of Notch3 in the CRBN-overexpressing embryos increased to 1.8-fold of the level in the untreated embryos at 11 hpf, and expression of Nrp2b in the CRBN-overexpressing embryos increased to 2.7-fold of the level in the untreated embryos at the same stage.
Elval3 (Huc) is a neural progenitor marker. Expression of Elavl3 (Huc) was also analyzed by quantitative PCR and in situ hybridization. […]

The mark [1] stands for this setting: fold of level in untreated embryos.

The values that follow come from patent US10272117B2, “Methods of using an activator of cereblon for neural cell expansion and the treatment of central nervous system disorders” (Celgene Corporation, priority 2014, dated 2019).

Peptide text beside a SMILES is read from it. * marks the point of attachment. Cbz = O=C(OCc1ccccc1)*

`CC(C)C[C@@H](C=O)NC(=O)[C@H](CC(C)C)NC(=O)[C@H](CC(C)C)NC(=O)OCc1ccccc1` [MG132] (Cbz-Leu-Leu-Leu-aldehyde): the “bands representing CRBN-containing (self-ubiquitinated) proteins” value in the series on CRBN was “a number of bands representing CRBN-containing proteins were detected”.
Take `O=C1CCC(N2C(=O)c3ccccc3C2=O)C(=O)N1` (stereo not shown) [thalidomide, reference compound]: the “brain size of BRD7-knockdown larvae incubated in thalidomide relative to absence of thalidomide” value in the series on zebrafish came out at 98.8%. Besides, in the series on zebrafish embryos (FIG. 13), the “expression of Nanog (change)” value is “decreased”, the “expression of Pou5f1 (change)” value is on record as “decreased” and the “expression of Zic3 (change)” value was “decreased”. In the series on zebrafish embryos (setting [1]), the “Notch3 mRNA expression” value came to 0.3 fold and the “Nrp2b mRNA expression” value is reported as 0.4 fold.
